Assay results from publication PMC6886665 (2019).

Tested on: truncated vancomycin aptamer (four base pairs removed from the stem), E-AB sensor (DNA, aptamer) CGAGGGTACCGCAATAGTACTTATTGTTCGCCTATTGTGGGTCGG
Assay: electrochemical aptamer-based sensor, square-wave voltammetry
Conditions: undiluted flowing whole blood; surface-attached aptamer; apparent

Work on `CN[C@H](CC(C)C)C(=O)N[C@H]1C(=O)N[C@@H](CC(N)=O)C(=O)N[C@H]2C(=O)N[C@H]3C(=O)N[C@H](C(=O)N[C@H](C(=O)O)c4cc(O)cc(O)c4-c4cc3ccc4O)[C@H](O)c3ccc(c(Cl)c3)Oc3cc2cc(c3O[C@@H]2O[C@H](CO)[C@@H](O)[C@H](O)[C@H]2O[C@H]2C[C@](C)(N)[C@H](O)[C@H](C)O2)Oc2ccc(cc2Cl)[C@H]1O` yielded a KD of 45 µM.
